Source: patent publication US8765808B2, “Treatment or prevention of cancer and precancerous disorders” (CHS Pharma, Inc., priority 2005, dated 2014)
Like-named read-outs stand apart in the source and are kept apart here.

Key:
[1] = test system: SCC-25 squamous cell skin cancer cell line; assay: MTS cell viability after pretreatment and oxidative stress, SCC skin cancer cells; format: cell-based, human; details: for sensitizing skin cancer cells to killing by TBHP: other NSAIDs at comparable active concentrations, compared to sulindac; for cancer killing effect of epimers, SCC cells: 500 μM 24 hours, then TBHP 2 hours (FIG. 24); for enhancing the killing of skin cancer cells (SCC-25) when exposed to TBHP: 24 hr pretreatment with 500 μM sulindac sulfone, 500 μM SMO or 50 μM sulindac sulfide, TBHP 2 hr (FIG. 14)
Method: (§1) SCC-25 is a human squamous cell carcinoma cell line developed by J G Rheinwald [Rheinwald, 1981]. […] The cells were maintained in minimum essential medium (Eagle) supplemented with 2 mM L-glutamine, Earle's BSS containing 1.5 g/L sodium bicarbonate, 0.1 mM non-essential amino acids, 1.0 mM sodium pyruvate and 10% fetal bovine serum.
The experimental approach was to pretreat SCC cells with sulindac for 24 hr prior to exposure to TBHP for 2 hr. Sulindac (Sigma; S-8139) was freshly prepared as a 1M stock solution in 1M Tris.Cl, pH 8.0. SCC cells were suspended in culture medium containing 10% fetal bovine serum at a cell density of 6×10^5 cells/ml. Cell suspensions containing 500 μM sulindac or no sulindac (Control) were plated in 96 well microtiter plates with a total of 6×10^4 cells per well. The plates were incubated for 24 hr at 37° C. in a 5% CO2 incubator. The culture medium was then removed and the cells washed once with fresh culture medium without serum. After removal of the wash solution, fresh culture medium without serum that contained the indicated final concentration of TBHP was added to the cells for 2 hrs. Serum was omitted from the medium during the two-hour exposure to TBHP since TBHP may be rapidly depleted in the presence of serum.

[2] = test system: RKO colon cancer cell line; assay: MTS cell viability after pretreatment and oxidative stress, RKO colon cancer cells; format: cell-based, human; details: other NSAIDs at comparable active concentrations, compared to sulindac
Method: as §1, with “RKO” for “SCC-25”, “colon” for “squamous cell”, “Michael Brattain [Brattain, 1984].” for “J G Rheinwald [Rheinwald, 1981].”
Experiments were performed with the RKO colon cancer cells that were pretreated with 500 μM sulindac using TBHP.

Cancer Lung cells = assay: Conversion of sulindac epimers to sulindac sulfide in whole cells, lung cancer; format: in vitro ADME; details: 200 μM epimer, 4 hours, serum-free medium
Method: (§2) After the incubations, the cells were pelleted by low speed centrifugation and lysed by the addition of 200 μl of 100% acetonitrile, followed by vigorous vortexing. The lysate was centrifuged for 15 minutes at 14,000×g to pellet cell debris. 50 μl of the supernatant was transferred to an HPLC autosampler microvial. The separation of metabolites is carried out on a 4.6×75 mm C18 reverse-phase column. […] The metabolites are detected at a wavelength of 330 nm.
(§3) The cells are incubated with 200 μM R- or S-Sulindac epimer for 4 hours in a defined, serum-free medium (EX-CELL^SM). After incubation, the cells are collected, rinsed and lysed with acetonitrile. The cytosolic contents are separated on a C-18 column.

[3] = test system: Cancer Skin (skin SCC) cells; details: 200 μM epimer, 4 hours, serum-free medium
Method: as §2, §3

HeLa cancer cells = details: 200 μM epimer, 4 hours, serum-free medium
Method: as §2, §3

Normal lung cells = assay: Conversion of sulindac epimers to sulindac sulfide in whole cells, normal lung; format: in vitro ADME; details: 200 μM epimer, 4 hours; for Amount Formed (sulindac sulfide): serum-free medium
Method: as §2, §3

[4] = test system: neonatal rat cardiac myocytes; details: for Amount Formed (sulindac sulfide): Normal Cardiomyocyte, 200 μM epimer, 4 hours, serum-free medium
Method: FIG. 23 is a graph showing the metabolic conversion of the R & S epimers of sulindac to the sulfide form in cardiac myocytes. The amount of sulindac sulfide formed by 10^6 cells incubated with 400 μM sulindac, R, S or RS mixture is measured as a function of time of incubation. […] The absorbance was measured at 330 nm.
To inhibit fibroblast growth, 0.1 mM bromodeoxyuridine was included in the medium for the first 3-5 days after plating. Cell cultures are incubated with sulindac or its individual epimers for specified times.
as §2, §3

[5] = test system: lung carcinoma cell line designated A549; assay: MTS cell viability after pretreatment and oxidative stress, lung cancer cells
Method: Cell viability was determined by the [sequence] 96®-Aqueous One Cell Proliferation Assay (Promega) according to the manufacturer's instructions. The assay utilizes a novel tetrazolium compound (3-(4,5-dimethylthiazol-2-yl)-5-(3-carboxymethoxyphenyl)-2-(4-sulfophenyl)-2H-tetrazolium; MTS) and an electron-coupling reagent (phenazine ethosulfate; PES). Metabolically active cells convert the MTS to a water-soluble formazan by the action of cellular dehydrogenases. The amount of formazan produced is measured by absorbance at 490 nm using a colorimetric microtiter plate reader (BIORAD; Model 2550). Absorbance is directly proportional to the number of viable cells.
Experiments using similar methods were performed with a lung carcinoma cell line designated A549. […] Cells were grown in Ham's F12K medium supplemented with final concentrations of 2 mM L-glutamine, 1.6 g/L sodium bicarbonate and 10% fetal bovine serum. Cultures were maintained between 6×10^3-6×10^4 cells/cm^2 in standard tissue culture flasks. The protocol for pretreatment of cells with 500 μM sulindac followed by a two hour exposure to various concentrations of TBHP was the same as that described for the RKO colon cancer cells.
Following a 24 hr pretreatment with 500 μM sulindac, the cells were washed once to remove the excess sulindac before exposure to TBHP for 2 hr.

[6] = test system: Normal HEK skin cells (human neonatal epidermal keratinocytes); assay: Intracellular ROS by indicator dye fluorescence, normal HEK skin cells; details: Table 4, alone or after Sul 500 uM
Method: Experimental conditions: Normal HEK skin cells plated onto 6-well plates at cell density of 60-70% confluence. Sulindac (0.5 mM)×24 hours (cell density remained about the same) followed by TBHP×2 hours followed by ROS indicator dye (5 μM)×1 hour (Table 1).
Human neonatal epidermal keratinocytes were plated into 6-well plates at a cell density of 60-70% confluence. The cultures were pretreated with sulindac (500 uM) for 34 hours followed by the addition of different concentrations of TBHP for 2 hours. During this period of time, the cell density in the 6-well plates remained the same (there was no increase in cell proliferation). This was followed by the addition of the ROS indicator dye.

SCC skin cancer cells = assay: Intracellular ROS by indicator dye fluorescence, SCC skin cancer cells
Method: SCC skin cancer cells were plated onto 6-well plates at a cell density of 50-60% confluence. The cultures were pretreated with sulindac (500 uM) for 24 hours followed by the addition of TBHP (100 uM) for two hours. During this period of time, the cell density in the 6-well plates increased to 80-90% confluent.

[7] = cited from earlier work
[8] = test system: precancerous growths and/or BCC's; assay: Topical sulindac gel followed by hydrogen peroxide solution in patients; details: applied alone to the skin condition
[9] = test system: WM-266-4 Melanoma skin cell line; assay: MTS cell viability after pretreatment and oxidative stress, melanoma cells; format: cell-based, human; details: sulindac sulfide pretreatment
[10] = Table 2, Sul 0.5 mM 24 hours and/or TBHP 100 μM 2 hours
[11] = Table 3, Sul 500 μM 24 hours and/or TBHP 100 μM 2 hours

Q: What does the source list for CC(=O)Oc1ccccc1C(=O)O [Acetylsalicylic acid]?
A: sensitizing skin cancer cells to killing by TBHP [1]: ineffective; sensitizing colon cancer cells to killing by TBHP [2]: ineffective

Q: With CC1=C(CC(=O)O)c2cc(F)ccc2/C1=C\c1ccc([S+](C)[O-])cc1 (stereo not shown) [R-epimer, R-sulindac sulfoxide] as the compound, how does the “cancer killing effect of epimers, SCC cells” value [1] read?
A: The value was “comparable in potency to the sulindac racemic mixture”.

Q: What about the “Amount Formed (sulindac sulfide)” value (Cancer Lung cells) of the same compound?
A: Its value is 7.5 picomoles.

Q: And the “Amount Formed (sulindac sulfide)” value [3]?
A: The value was 35.3 picomoles.

Q: What about the “Amount Formed (sulindac sulfide)” value (HeLa cancer cells) of the same compound?
A: The value was 9.3 picomoles.

Q: And the “R/S (%)” value (Normal lung cells)?
A: The value was 6%.

Q: What about the “R/S (%)” value (Normal lung cells; listed as R epimer) of the same compound?
A: Its value is under 10%.

Q: And the “Amount Formed (sulindac sulfide)” value (Normal lung cells)?
A: The value was 2.2 picomoles.

Q: And the “Amount Formed (sulindac sulfide)” value [4]?
A: The value was 11.6 picomoles.

Q: What about the “conversion to the sulfide compared to the S-epimer” value ([4]; normal cardiac myocytes, 400 μM, time course (FIG. 23)) of the same compound?
A: The value was “greater than 10 fold less conversion”.

Q: What about the “cancer killing effect of epimers, lung cancer cells” value [5] of the same compound?
A: The value was “comparable in potency to the sulindac racemic mixture”.

Q: For CC1=C(CC(=O)O)c2cc(F)ccc2/C1=C\c1ccc([S@+](C)[O-])cc1 [S-epimer, S-sulindac sulfoxide], which “cancer killing effect of epimers, SCC cells” value [1] is on record?
A: The value was “comparable in potency to the sulindac racemic mixture”.

Q: And the “Amount Formed (sulindac sulfide)” value (Cancer Lung cells)?
A: The value was 17.7 picomoles.

Q: And the “Amount Formed (sulindac sulfide)” value [3]?
A: Its value is 57 picomoles.

Q: What about the “Amount Formed (sulindac sulfide)” value (HeLa cancer cells) of the same compound?
A: The value was 7.9 picomoles.

Q: And the “Amount Formed (sulindac sulfide)” value (Normal lung cells)?
A: Its value is 35 picomoles.

Q: What about the “Amount Formed (sulindac sulfide)” value [4] of the same compound?
A: The value was 120.9 picomoles.

Q: And the “cancer killing effect of epimers, lung cancer cells” value [5]?
A: The value was “comparable in potency to the sulindac racemic mixture”.

Q: For CC(C)(C)OO [TBHP, tert-butyl hydroperoxide], which “% Cells containing ROS” value ([6]; TBHP 200 uM 2 hours) is on record?
A: The value was 2%.

Q: And the “fold increase compared to untreated control” value (“fold increase” below) ([6]; TBHP 200 uM 2 hours)?
A: Its value is 0 fold.

Q: And the “% Cells containing ROS” value ([6]; TBHP 400 uM 2 hours)?
A: Its value is 5%.

Q: And the “fold increase” value ([6]; TBHP 400 uM 2 hours)?
A: Its value is 2 fold.

Q: And the “% Cells containing ROS” value ([6]; TBHP 800 uM 2 hours)?
A: Its value is 60%.

Q: What about the “fold increase” value ([6]; TBHP 800 uM 2 hours) of the same compound?
A: The value was 20 fold.

Q: What about the “% Cells with ROS Uptake by Fluorescence” value (SCC skin cancer cells; [10]) of the same compound?
A: The value was 11%.

Q: And the “fold increase” value (SCC skin cancer cells; [10])?
A: The value was 7 fold.

Q: What about the “% Cells containing ROS” value (SCC skin cancer cells; [11]) of the same compound?
A: Its value is 11%.

Q: What about the “fold increase” value (SCC skin cancer cells; [11]) of the same compound?
A: The value was 7 fold.

Q: And the “ROS levels in SCC skin cancer cells, agent alone” value (SCC skin cancer cells; sulindac 500 uM or TBHP 100 uM alone)?
A: Its value is “enhanced the ROS levels”.

Q: And the “viable cells without sulindac pretreatment” value ([5]; 1.5-2.0 mM TBHP, 2 hr, untreated (no sulindac) cells)?
A: Its value is “approximately 50%”.

Q: With O=C(O)Cc1ccccc1Nc1c(Cl)cccc1Cl [diclofenac sodium] as the compound, how does the “sensitizing skin cancer cells to killing by TBHP” value [1] read?
A: The value was “ineffective”.

Q: And the “sensitizing colon cancer cells to killing by TBHP” value [2]?
A: Its value is “ineffective”.

Q: With OO [hydrogen peroxide] as the compound, how does the skin irritation ([7]; 3-8% hydrogen peroxide, 24 hours under occlusive dressing, intact and abraded skin, rabbits) read?
A: Its skin irritation is “nonirritating”.

Q: What about the skin irritation ([7]; 10% hydrogen peroxide, 4 hour exposure) of the same compound?
A: The skin irritation was “slight”.

Q: What about the skin irritation ([7]; 35% hydrogen peroxide) of the same compound?
A: Its skin irritation is “mild”.

Q: What about the “classification as skin irritant by the European Union criteria” value ([7]; hydrogen peroxide solutions of 35% or less, rabbits) of the same compound?
A: Its value is “would not be classified as skin irritants”.

Q: What about the “effect on the precancerous or cancerous growth when applied alone” value [8] of the same compound?
A: Its value is “no effect”.

Q: With CC(C)Cc1ccc(C(C)C(=O)O)cc1 (stereo not shown) [ibuprofen] as the compound, how does the “sensitizing skin cancer cells to killing by TBHP” value [1] read?
A: The value was “ineffective”.

Q: And the “sensitizing colon cancer cells to killing by TBHP” value [2]?
A: The value was “ineffective”.

Q: For CSc1ccc(/C=C2/C(C)=C(CC(=O)O)c3cc(F)ccc32)cc1 [sulindac sulfide], which “enhancing the killing of skin cancer cells (SCC-25) when exposed to TBHP” value (shortened to “enhancing the killing”) [1] is on record?
A: Its value is “not effective”.

Q: What about the “reducing the cell viability of melanoma cells exposed to TBHP” value [9] of the same compound?
A: The value was “had activity in reducing the cell viability”.

Q: And the “reducing the cell viability of lung cancer cells exposed to TBHP” value ([5]; 250 μM sulindac sulfide 24 hr, TBHP 2 hr (FIG. 15))?
A: Its value is “had activity in reducing the cell viability”.

Q: With CC1=C(CC(=O)O)c2cc(F)ccc2/C1=C\c1ccc(S(C)(=O)=O)cc1 [sulindac sulfone] as the compound, how does the “enhancing the killing” value [1] read?
A: Its value is “effective in enhancing the killing”.

Q: What about the “killing effect in all cancer cell studies” value ([5]; FIG. 15, 500 μM sulindac, 250 μM sulindac sulfone) of the same compound?
A: Its value is “most potent killing effect”.

Q: For sulindac methionine sulfoxide [SMO], which “enhancing the killing” value [1] is on record?
A: The value was “not effective”.
